Data reported in patent US9682060B2, “Small molecules that induce intrinsic pathway apoptosis” (The Board of Trustees of the University of Illinois, priority 2015, dated 2017).

What was measured:
in vitro = details: human, U-937 cells
4T1 breast cancer = experiment: Syngeneic subcutaneous tumor model; type: in vivo, BALB/c mice; details: 4T1 model; 20 mg/kg IP once daily for 4 days
Method: All animal studies were performed with prior approval by the University of Illinois at Urbana-Champaign IACUC committee. […]. Seven days (for B16-F10) and six days (for 4T1) after inoculation, the mice were randomized based upon tumor size with 7 mice per group. Vehicle or compound was administered intraperitoneally as a corn oil DMSO suspension (300 μL of 10% DMSO in trans fat-free corn oil, 20 mg/kg) once daily for 3 consecutive days for B16-F10 and 4 consecutive days for 4T1 models. Tumor measurements were performed every other day using a caliper and tumor volume was calculated using the equation (0.5×l×w^2).

H1993 = experiment: Raptinal toxicity, 24 hour IC50 (sulforhodamine B assay for adherent cells); type: cell-based; details: NCI-H1993; H1993 (Human Lung Cancer); 24 hour incubation; mean ± SD
Method: (§1) Sulforhodamine B Assay for Adherent Cells.
(§2) Serial dilutions of compound in 100% DMSO were added in triplicate (2 μL to each well) to empty wells of a 96-well plate. Adherent cells (3T3, Hs888Lu, MCF-7, HeLa, WT-MEF, 4T1, B16-F10, SK-MEL-5, MIA PaCa2, BT-549, MDA-MB-436, 143B, HOS, H460, H1993) cells were added to each well (5×10^3 cells in 198 μL of RPMI 1640, DMEM or EMEM media). The plates were incubated for 24 hours. The media was removed from the plate and ice-cold trichloroacetic acid (100 μL of 10% w/v trichloroacetic acid) was added to the plates which were then incubated at 4° C. overnight to fix the cells. The trichloroacetic acid was removed and the wells washed with 200 μL of de-ionized water 5 times. Sulforhodamine B (200 μL of 0.04% sodium salt dissolved in 1% acetic acid) was added to each well and the plates incubated at room temperature for 30 min. Excess sulforhodamine B was removed by washing the plates 5 times with 1% acetic acid. The bound dye was released by the addition of unbuffered Tris-base (200 μL of 10 mM solution) and after a 30 min incubation at room temperature the absorbance at 510 nm was measured (Molecular Devices SpectraMax Plus 384 plate reader). The mean IC50 values and standard deviations were determined from three independent experiments.

143B = experiment: as above; type: cell-based; details: 143B (Human Osteosarcoma); 24 hour incubation; mean ± SD
Method: as §1, §2

MIA PaCa-2 = experiment: as above; type: cell-based; details: MIA PaCa-2 (Human Pancreatic Cancer); 24 hour incubation; mean ± SD
Method: as §1, §2

Hs888Lu = experiment: as above; type: cell-based; details: Hs888Lu (Human lung fibroblast); 24 hour incubation; mean ± SD
Method: as §1, §2

SK-MEL-5 = experiment: as above; type: cell-based; details: SK-MEL-5 (Human Melanoma); 24 hour incubation; mean ± SD
Method: as §1, §2

BT-549 = experiment: as above; type: cell-based; details: BT-549 (Human Breast Cancer); 24 hour incubation; mean ± SD
Method: as §1, §2

WT-MEF = experiment: as above; type: cell-based; details: Fibroblast; WT-MEF (Mouse Embryonic Fibroblasts); 24 hour incubation; mean ± SD
Method: as §1, §2

4T1 = experiment: as above; type: cell-based; details: 4T1 (Mouse Breast Cancer); 24 hour incubation; mean ± SD
Method: as §1, §2

HOS = experiment: as above; type: cell-based; details: HOS (Human Osteosarcoma); 24 hour incubation; mean ± SD
Method: as §1, §2

3T3 = experiment: as above; type: cell-based; details: NIH3T3; 3T3 (Mouse Embryonic Fibroblasts); 24 hour incubation; mean ± SD
Method: as §1, §2

MCF-7 = experiment: as above; type: cell-based; details: MCF7; MCF-7 (Human Breast Cancer); 24 hour incubation; mean ± SD
Method: as §1, §2

B16-F10 = experiment: as above; type: cell-based; details: B16-F10 (Mouse Melanoma); 24 hour incubation; mean ± SD
Method: as §1, §2

H460 = experiment: as above; type: cell-based; details: NCI-H460; H460 (Human Lung Cancer); 24 hour incubation; mean ± SD
Method: as §1, §2

MDA-MB-436 = experiment: as above; type: cell-based; details: MDA-MB-436 (Human Breast Cancer); 24 hour incubation; mean ± SD
Method: as §1, §2

HeLa = experiment: as above; type: cell-based; details: HeLa (Human Cervical Cancer); 24 hour incubation; mean ± SD
Method: as §1, §2

SMILES: O=CC1(C2(C=O)c3ccccc3-c3ccccc32)c2ccccc2-c2ccccc21 [Raptinal, [9,9′]bifluorenyl-9,9′-dicarbaldehyde]
- cytotoxicity at 2 h, 10 µM (in vitro): ~80%
- growth inhibition (4T1 breast cancer): 50%
- IC50 (H1993): 1.2 ± 0.1 µM
- IC50 (143B): 1.2 ± 0.5 µM
- IC50 (MIA PaCa-2): 1.9 ± 0.8 µM
- IC50 (Hs888Lu): 1.7 ± 0.1 µM
- IC50 (SK-MEL-5): 0.7 ± 0.1 µM
- IC50 (BT-549): 1.3 ± 0.4 µM
- IC50 (WT-MEF): 2.4 ± 0.7 µM
- IC50 (4T1): 1 ± 0.2 µM
- IC50 (HOS): 1 ± 0.1 µM
- IC50 (3T3): 1 ± 0.2 µM
- IC50 (MCF-7): 3.4 ± 0.1 µM
- IC50 (B16-F10): 1.6 ± 0.2 µM
- IC50 (H460): 1.1 ± 0.1 µM
- IC50 (MDA-MB-436): 1.1 ± 0.1 µM
- IC50 (HeLa): 0.6 ± 0.4 µM
